According to ChEMBL document CHEMBL4414672, “Synthesis of certain benzothieno[3,2-d]pyrimidine derivatives as a selective SIRT2 inhibitors” (Eur J Med Chem, 2020):

Experiments:
Format in all cases: functional
NCI-H460 = experiment: Growth inhibition of human NCI-H460 cells at 10^-5 M incubated for 48 hrs by sulforhodamine B assay; details: NCI-H460, 48 h, read-out: GI
COLO 205 = experiment: Growth inhibition of human COLO205 cells at 10^-5 M incubated for 48 hrs by sulforhodamine B assay; details: COLO 205, 48 h, read-out: GI
HCC 2998 = experiment: Growth inhibition of human HCC2998 cells at 10^-5 M incubated for 48 hrs by sulforhodamine B assay; details: HCC 2998, 48 h, read-out: GI
HCT-15 = experiment: Growth inhibition of human HCT15 cells at 10^-5 M incubated for 48 hrs by sulforhodamine B assay; details: HCT-15, 48 h, read-out: GI
SF-539 = experiment: Growth inhibition of human SF539 cells at 10^-5 M incubated for 48 hrs by sulforhodamine B assay; details: SF-539, 48 h, read-out: GI
SNB-19 = experiment: Growth inhibition of human SNB19 cells at 10^-5 M incubated for 48 hrs by sulforhodamine B assay; details: SNB-19, 48 h, read-out: GI
SNB-75 = experiment: Growth inhibition of human SNB75 cells at 10^-5 M incubated for 48 hrs by sulforhodamine B assay; details: SNB-75, 48 h, read-out: GI
U-251 = experiment: Growth inhibition of human U251 cells at 10^-5 M incubated for 48 hrs by sulforhodamine B assay; details: U-251, 48 h, read-out: GI
LOX IMVI = experiment: Growth inhibition of human LOXIMVI cells at 10^-5 M incubated for 48 hrs by sulforhodamine B assay; details: read-out: GI
SK-MEL-2 = experiment: Growth inhibition of human SK-MEL-2 cells at 10^-5 M incubated for 48 hrs by sulforhodamine B assay; details: SK-MEL-2, 48 h, read-out: GI
SK-MEL-5 = experiment: Growth inhibition of human SK-MEL-5 cells at 10^-5 M incubated for 48 hrs by sulforhodamine B assay; details: SK-MEL-5, 48 h, read-out: GI
UACC-257 = experiment: Growth inhibition of human UACC257 cells at 10^-5 M incubated for 48 hrs by sulforhodamine B assay; details: UACC-257, 48 h, read-out: GI
UACC-62 = experiment: Growth inhibition of human UACC62 cells at 10^-5 M incubated for 48 hrs by sulforhodamine B assay; details: UACC-62, 48 h, read-out: GI
OVCAR-5 = experiment: Growth inhibition of human OVCAR5 cells at 10^-5 M incubated for 48 hrs by sulforhodamine B assay; details: OVCAR-5, 48 h, read-out: GI
NCI/ADR-RES = experiment: Growth inhibition of human NCI/ADR-RES cells at 10^-5 M incubated for 48 hrs by sulforhodamine B assay; details: read-out: GI
SK-OV-3 = experiment: Growth inhibition of human SKOV3 cells at 10^-5 M incubated for 48 hrs by sulforhodamine B assay; details: SK-OV-3, 48 h, read-out: GI
786-0 = experiment: Growth inhibition of human 786-0 cells at 10^-5 M incubated for 48 hrs by sulforhodamine B assay; details: 786-0, 48 h, read-out: GI
RXF 393 = experiment: Growth inhibition of human RXF393 cells at 10^-5 M incubated for 48 hrs by sulforhodamine B assay; details: RXF 393, 48 h, read-out: GI
SN12C = experiment: Growth inhibition of human SN12C cells at 10^-5 M incubated for 48 hrs by sulforhodamine B assay; details: read-out: GI
PC-3 = experiment: Growth inhibition of human PC3 cells at 10^-5 M incubated for 48 hrs by sulforhodamine B assay; details: PC-3, 48 h, read-out: GI

Compound	inhibition of growth at 10 µM (NCI-H460)	inhibition of growth at 10 µM (COLO 205)	inhibition of growth at 10 µM (HCC 2998)	inhibition of growth at 10 µM (HCT-15)	inhibition of growth at 10 µM (SF-539)	inhibition of growth at 10 µM (SNB-19)	inhibition of growth at 10 µM (SNB-75)	inhibition of growth at 10 µM (U-251)	inhibition of growth at 10 µM (LOX IMVI)	inhibition of growth at 10 µM (SK-MEL-2)	inhibition of growth at 10 µM (SK-MEL-5)	inhibition of growth at 10 µM (UACC-257)	inhibition of growth at 10 µM (UACC-62)	inhibition of growth at 10 µM (OVCAR-5)	inhibition of growth at 10 µM (NCI/ADR-RES)	inhibition of growth at 10 µM (SK-OV-3)	inhibition of growth at 10 µM (786-0)	inhibition of growth at 10 µM (RXF 393)	inhibition of growth at 10 µM (SN12C)	inhibition of growth at 10 µM (PC-3)
N=C1Nc2c(sc3ccc(Cl)cc23)C(c2cccc(Br)c2)N1 (stereo not given)	1.37%	-0.42%	-13.8%	-3.08%	-8.29%	2.72%	14.4%	-3.32%	1.33%	-8.11%	3.53%	1.22%	16.5%	-3.33%	2.51%	7.9%	5.21%	-10.1%	6.52%	10.2%
O=C1Nc2c(sc3ccc(Cl)cc23)C(c2cccc(Br)c2)N1 (stereo not given)	-0.32%	-4.67%	-23.5%	-0.85%	-0.96%	0.22%	15.2%	-3.91%	-3.37%	-9.69%	3.66%	-7.95%	8.42%	-1.01%	12.2%	19.7%	-1.2%	-18.1%	2.71%	0.46%
Oc1ccccc1C1NC(=S)Nc2c1sc1ccc(Cl)cc21 (stereo not given)	1.28%	-1.76%	-10.6%	-0.05%	-0.95%	2.48%	21.1%	-5.09%	6.44%	7.35%	6.32%	-1.4%	13.1%	5.8%	9.4%	8.48%	6.17%	2.85%	9.77%	10.2%
O=C1CC(=O)N(C2=Nc3c(sc4ccc(Cl)cc34)C(c3cccc([N+](=O)[O-])c3)N2)N1 (stereo not given)	2.81%	-8.39%	-8.39%	-3.4%	4.39%	-9.31%	8.27%	-10.9%	2.94%	-3.18%	5.38%	-8.39%	8.04%	-2.6%	-2.89%	1.27%	-4.83%	10.9%	18.3%	2.78%
S=C1Nc2c(sc3ccc(Cl)cc23)C(c2cccc(Br)c2)N1 (stereo not given)	7.39%	-2.63%	-27.2%	0.95%	1%	2.38%	18.5%	-7.09%	-0.61%	-6.36%	3.95%	-8.63%	13%	-0.03%	-3.15%	10.4%	-0.33%	-7.19%	2.82%	6.34%
O=[N+]([O-])c1cccc(C2c3sc4ccc(Cl)cc4c3N=C3NN=NN32)c1 (stereo not given)	6.19%	-7.9%	1.22%	-16%	-8.51%	7.13%	-9.67%	3.96%	-0.19%	-23%	-10.9%	3.87%	21.3%	-6.97%	3.11%	6.39%	9.33%	0%	9.98%	-11.3%
O=C1/C(=C\c2ccccc2O)Sc2ccc(Cl)cc21	-8.83%	-5.97%	-25.6%	-7.07%	-6.81%	-7.92%	22.3%	-8.52%	9.63%	1.25%	4.61%	-1.33%	22.3%	-0.88%	6.5%	5.06%	-0.39%	-3.05%	5.15%	1.43%
N=C1Nc2c(sc3ccc(Cl)cc23)C(c2ccccc2O)N1 (stereo not given)	0.95%	-6.79%	-22.2%	-5.8%	-6.63%	-3.35%	22.4%	-7.81%	-0.7%	0.27%	2.66%	-10.3%	8.57%	-1.61%	7.92%	9.9%	-0.24%	3.66%	-22.4%	-12.5%
O=C1Nc2c(sc3ccc(Cl)cc23)C(c2cccc([N+](=O)[O-])c2)N1 (stereo not given)	3.38%	-1.33%	-3.91%	-4.66%	8.46%	5.92%	22.8%	6.51%	4.86%	2.08%	2.85%	0.85%	8.84%	0.73%	6.5%	3.88%	4.42%	-8.11%	7.07%	10.8%
O=C1Nc2c(sc3ccc(Cl)cc23)C(c2ccccc2O)N1 (stereo not given)	6.65%	-9.33%	-15.3%	2%	3.22%	2.91%	27.4%	4.41%	-0.62%	2.38%	4.49%	9.85%	13.9%	1.92%	1.65%	4.45%	1.65%	-4.74%	7.73%	15.2%
